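These data come from cells grown in 96-well plates and exposed to compound for 48 hours at five concentrations. GI50 = concentration required for 50% inhibition of growth.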 The source made the active and inactive calls. No stated cut-off is given here; in the data, active = GI50 up to about 1.1 µM and inactive = higher.
Tests used:
Experiment in all cases: growth of human tumour cells (NCI), 48 h
[1] = test system: SK-MEL-2
[2] = test system: A549
[3] = test system: CCRF-CEM
[4] = test system: EKVX
[5] = test system: CAKI-1
[6] = test system: SNB-19
[7] = test system: BT-549
[8] = test system: COLO 205
[9] = test system: A498
[10] = test system: SN12C
[11] = test system: RPMI-8226
[12] = test system: 786-0
[13] = test system: NCI-H522
[14] = test system: SW-620
[15] = test system: UACC-257
[16] = test system: RXF 393
[17] = test system: HL-60
[18] = test system: ACHN
[19] = test system: HCT-116
[20] = test system: SK-OV-3
[21] = test system: MDA-MB-231
[22] = test system: T47D
[23] = test system: MDA-MB-435
[24] = test system: HOP-92
[25] = test system: PC-3
[26] = test system: HT-29
[27] = test system: HCT-15
[28] = test system: M14
[29] = test system: KM12
[30] = test system: SK-MEL-28
[31] = test system: UO-31
[32] = test system: MOLT-4
[33] = test system: OVCAR-4
[34] = test system: OVCAR-8
[35] = test system: SR
[36] = test system: TK-10
[37] = test system: SF-539
[38] = test system: MDA-N
[39] = test system: Malme-3M
[40] = test system: NCI/ADR-RES
[41] = test system: K562
[42] = test system: NCI-H23
[43] = test system: IGROV-1
[44] = test system: DU-145
[45] = test system: UACC-62
[46] = test system: NCI-H460
[47] = test system: U-251
[48] = test system: HOP-62
[49] = test system: OVCAR-5
[50] = test system: LOX IMVI
[51] = test system: OVCAR-3
[52] = test system: SK-MEL-5
[53] = test system: SF-295
[54] = test system: HCC 2998
[55] = test system: MCF7
[56] = test system: NCI-H226
[57] = test system: Hs-578T
[58] = test system: SNB-75
[59] = test system: SF-268

COc1ccc2c(c1)CCCN2S(=O)(=O)c1ccccc1[N+](=O)[O-]
GI50 [1]: 22.5 µM (inactive)
GI50 [2]: 53.7 µM (inactive)
GI50 [3]: 33.7 µM (inactive)
GI50 [4]: 56 µM (inactive)
GI50 [5]: > 89.5 µM (inactive)
GI50 [6]: > 73.3 µM (inactive)
GI50 [7]: 9.06 µM (inactive)
GI50 [8]: 40.6 µM (inactive)
GI50 [9]: 33.4 µM (inactive)
GI50 [10]: 65.6 µM (inactive)
GI50 [11]: 29.4 µM (inactive)
GI50 [12]: 58.5 µM (inactive)
GI50 [13]: 26.7 µM (inactive)
GI50 [14]: 17.4 µM (inactive)
GI50 [15]: 71.9 µM (inactive)
GI50 [16]: 25.6 µM (inactive)
GI50 [17]: 4.56 µM (inactive)
GI50 [18]: 41.1 µM (inactive)
GI50 [19]: 24.2 µM (inactive)
GI50 [20]: 24 µM (inactive)
GI50 [21]: 53.5 µM (inactive)
GI50 [22]: 48.2 µM (inactive)
GI50 [23]: 2.99 µM (inactive)
GI50 [24]: 42.6 µM (inactive)
GI50 [25]: 34.9 µM (inactive)
GI50 [26]: 21.4 µM (inactive)
GI50 [27]: 14.3 µM
GI50 [28]: 40.8 µM (inactive)
GI50 [29]: 10.7 µM (inactive)
GI50 [30]: 68.5 µM (inactive)
GI50 [31]: 43 µM (inactive)
GI50 [32]: 14.4 µM (inactive)
GI50 [33]: 45.7 µM (inactive)
GI50 [34]: 53.7 µM (inactive)
GI50 [35]: 11.1 µM (inactive)
GI50 [36]: 54.8 µM (inactive)
GI50 [37]: 27.7 µM (inactive)
GI50 [38]: 3.73 µM (inactive)
GI50 [39]: 40.8 µM (inactive)
GI50 [40]: 19.2 µM (inactive)
GI50 [41]: 5.89 µM (inactive)
GI50 [42]: 46.2 µM (inactive)
GI50 [43]: 34.3 µM (inactive)
GI50 [44]: 74.5 µM (inactive)
GI50 [45]: 47.8 µM (inactive)
GI50 [46]: 26 µM (inactive)
GI50 [47]: 24.3 µM (inactive)
GI50 [48]: 47.5 µM (inactive)
GI50 [49]: 84.3 µM (inactive)
GI50 [50]: 32.4 µM (inactive)
GI50 [51]: 47.8 µM (inactive)
GI50 [52]: 41.8 µM (inactive)
GI50 [53]: 30.5 µM (inactive)
GI50 [54]: 35.6 µM (inactive)
GI50 [55]: 21.6 µM (inactive)
GI50 [56]: 44.2 µM (inactive)
GI50 [57]: 43.7 µM (inactive)
GI50 [58]: 24.1 µM (inactive)
GI50 [59]: 49.5 µM (inactive)

O=C1CC(O)c2cscc21 (centres undefined)
GI50 [1]: > 100 µM (inactive)
GI50 [3]: 21.6 µM (inactive)
GI50 [4]: > 100 µM (inactive)
GI50 [5]: > 100 µM (inactive)
GI50 [7]: > 100 µM (inactive)
GI50 [8]: 34 µM (inactive)
GI50 [9]: > 100 µM (inactive)
GI50 [10]: > 100 µM (inactive)
GI50 [11]: 35.3 µM (inactive)
GI50 [12]: > 100 µM (inactive)
GI50 [13]: 41.3 µM (inactive)
GI50 [14]: 37.8 µM (inactive)
GI50 [15]: > 100 µM (inactive)
GI50 [16]: > 100 µM (inactive)
GI50 [17]: > 100 µM (inactive)
GI50 [18]: > 100 µM (inactive)
GI50 [19]: > 100 µM (inactive)
GI50 [20]: > 100 µM (inactive)
GI50 [21]: > 100 µM (inactive)
GI50 [22]: > 100 µM (inactive)
GI50 [23]: > 100 µM (inactive)
GI50 [24]: > 100 µM (inactive)
GI50 [25]: > 100 µM (inactive)
GI50 [26]: > 100 µM (inactive)
GI50 [27]: > 100 µM
GI50 [29]: > 100 µM (inactive)
GI50 [30]: > 100 µM (inactive)
GI50 [32]: 35.2 µM (inactive)
GI50 [33]: > 100 µM (inactive)
GI50 [34]: 65.9 µM (inactive)
GI50 [35]: 29.5 µM (inactive)
GI50 [36]: > 100 µM (inactive)
GI50 [37]: > 100 µM (inactive)
GI50 [38]: > 100 µM (inactive)
GI50 [39]: > 100 µM (inactive)
GI50 [40]: > 100 µM (inactive)
GI50 [41]: 38.1 µM (inactive)
GI50 [42]: > 100 µM (inactive)
GI50 [43]: > 100 µM (inactive)
GI50 [44]: > 100 µM (inactive)
GI50 [45]: > 100 µM (inactive)
GI50 [46]: > 100 µM (inactive)
GI50 [47]: > 100 µM (inactive)
GI50 [48]: > 100 µM (inactive)
GI50 [49]: > 100 µM (inactive)
GI50 [50]: 36.5 µM (inactive)
GI50 [51]: > 100 µM (inactive)
GI50 [52]: > 100 µM (inactive)
GI50 [53]: > 100 µM (inactive)
GI50 [54]: 32.2 µM (inactive)
GI50 [55]: > 100 µM (inactive)
GI50 [56]: > 100 µM (inactive)
GI50 [57]: > 100 µM (inactive)
GI50 [58]: > 100 µM (inactive)
GI50 [59]: > 100 µM (inactive)

Reference: ChEMBL document CHEMBL1201862, “PubChem BioAssay data set” (2004)
